Results as given in US9688615B2, “Benzimidazole inhibitors of the sodium channel” (Mark G. DeGiacomo, priority 2011, dated 2017).
Like-named read-outs stand apart in the source and are kept apart here.

Tested on: L5/L6 spinal nerve ligation (SNL) rats, mechanical hyperalgesia
Assay: L5/L6 Spinal Nerve Ligation (SNL) Chung pain model, assessment of mechanical hyperalgesia (digital Randall-Selitto)
Type: in vivo, male Sprague-Dawley rats
Details: p.o.; for Response Threshold (g) 1 hr / Response Threshold (g) 2 hr / Response Threshold (g) 4 hr / effect on mechanical hyperalgesia compared to vehicle treated animals / inhibition in vivo at 30 mg/kg: 30 mg/kg; for effect on mechanical hyperalgesia compared to vehicle treated animals: time points 1, 2, 4 hours after administration
Source text: The Spinal Nerve Ligation is an animal model representing peripheral nerve injury generating a neuropathic pain syndrome. In this model experimental animals develop the clinical symptoms of tactile allodynia and hyperalgesia. L5/L6 Spinal nerve ligation (SNL) injury was induced using the procedure of Kim and Chung (Kim et al., Pain 50:355-363 (1992)) in male Sprague-Dawley rats (Harlan; Indianapolis, Ind.) weighing 200 to 250 grams. An exemplary protocol is provided below
The animals were anesthetized with isoflurane, the left L6 transverse process was removed, and the L5 and L6 spinal nerves were tightly ligated with 6-0 silk suture. The wound was closed with internal sutures and external tissue adhesive.
Baseline and post-treatment values for mechanical hyperalgesia were evaluated using a digital Randall-Selitto device (dRS; IITC Life Sciences, Woodland Hills, Calif.). Animals were allowed to acclimate to the testing room for a minimum of 30 minutes before testing. Animals were placed in a restraint sling that suspends the animal, leaving the hind limbs available for testing. Paw compression threshold was measured once at each time point for the ipsilateral and contralateral paws. The stimulus was applied to the plantar surface of the hind paw by a dome-shaped tip placed between the 3rd and 4th metatarsus, and pressure was applied gradually over approximately 10 seconds. Measurements are taken from the first observed nocifensive behavior of vocalization, struggle or withdrawal. A cut-off value of 300 g was used to prevent injury to the animal. The mean and standard error of the mean (SEM) were determined for each paw for each treatment group. Fourteen days after surgery, mechanical hyperalgesia was assessed and rats were assigned to treatment groups based on pre-treatment baseline values. Prior to initiating drug delivery, baseline behavioural testing data can be obtained. At selected times after infusion of the Test or Control Article behavioural data can then be collected again.

[1] = Rattus norvegicus, po, 1 hr after administration, read-out: % Reversal 1 hr
[2] = Rattus norvegicus, po, 2 hr after administration, read-out: % Reversal 2 hr
[3] = Rattus norvegicus, po, 4 hr after administration, read-out: % Reversal 4 hr

| SMILES | Response Threshold (g) 1 hr (1 hr after administration) [g] | Response Threshold (g) 2 hr (2 hr after administration) [g] | Response Threshold (g) 4 hr (4 hr after administration) [g] | effect on mechanical hyperalgesia compared to vehicle treated animals | inhibition in vivo at 30 mg/kg [1] [%] | inhibition in vivo at 30 mg/kg [2] [%] | inhibition in vivo at 30 mg/kg [3] [%] | inhibition in vivo at 100 mg/kg (Rattus norvegicus, po, 2 h, 100 mg/kg, 2 hr after administration, read-out: % Reversal 2 hr) [%] |
| --- | --- | --- | --- | --- | --- | --- | --- | --- |
| FC(F)(F)c1cc(C(F)(F)F)c2nc(CC3CNC3)[nH]c2c1 [Compound (1), 2-(azetidin-3-ylmethyl)-4,6-bis(trifluoromethyl)-1H-benzo[d]imidazole] | 93.8 | 120.6 | 113.3 | significantly decreased mechanical hyperalgesia at 2 and 4 hours | 9.2 | 30.2 | 24.4 | – |
| CC(C)C[C@H](CN)Cc1nc2c(C(F)(F)F)cc(C(F)(F)F)cc2[nH]1 [Compound (31), (S)-2-((4,6-bis(trifluoromethyl)-1H-benzo[d]imidazol-2-yl)methyl)-4-methylpentan-1-amine] | 107.9 | 139.0 | 109.9 | significantly decreased mechanical hyperalgesia 2 and 4 hours | 17.2 | 48 | 19.2 | – |
| O=C1CNCCN1Cc1nc2cc(C(F)(F)F)cc(C(F)(F)F)c2[nH]1 [Compound (110), 1-((5,7-bis(trifluoromethyl)-1H-benzo[d]imidazol-2-yl)methyl)piperazin-2-one] | 100.6 | 148.5 | 126.1 | significantly decrease mechanical hyperalgesia at two and four hours | 14.6 | 51.2 | 34.1 | – |
| NCC(=O)NCc1nc2cc(C(F)(F)F)cc(C(F)(F)F)c2[nH]1 [Compound (24), 2-amino-N-((5,7-bis(trifluoromethyl)-1H-benzo[d]imidazol-2-yl)methyl)acetamide] | 84.0 | 118.4 | 116.6 | no significant effect on mechanical hyperalgesia at any time point tested | 0.8 | 27.9 | 26.5 | – |
| NCC1(CC(=O)O)CCCCC1 [Gabapentin] | – | – | – | – | – | – | – | 55.3 |
| CC(C)(N)C(=O)NCc1nc2cc(C(F)(F)F)cc(C(F)(F)F)c2[nH]1 [Compound (36), 2-amino-N-((5,7-bis(trifluoromethyl)-1H-benzo[d]imidazol-2-yl)methyl)-2-methylpropanamide] | 87.8 | 107.0 | 112.3 | no significant effect on mechanical hyperalgesia at any time point tested | -0.5 | 18.6 | 23.8 | – |
| NCCc1nc2cc(C(F)(F)F)cc(C(F)(F)F)c2[nH]1 [Compound (33), 2-(5,7-bis(trifluoromethyl)-1H-benzo[d]imidazol-2-yl)ethanamine] | 113.6 | 136.9 | 150.8 | significantly decreased mechanical hyperalgesia at 1, 2 and 4 hours | 22.4 | 44.7 | 58.1 | – |
| CNCc1nc2cc(C(F)(F)F)cc(C(F)(F)F)c2[nH]1 [Compound (41), 1-(5,7-bis(trifluoromethyl)-1H-benzo[d]imidazol-2-yl)-N-methylmethanamine] | 99.6 | 108.3 | 109.0 | significantly decreased mechanical hyperalgesia at 2 and 4 hours | 13.8 | 20.7 | 21.3 | – |
| CN(Cc1nc2cc(C(F)(F)F)cc(C(F)(F)F)c2[nH]1)S(N)(=O)=O [Compound (56), N-{[4,6-bis(trifluoromethyl)-1H-benzimidazol-2-yl]methyl}-N-methylsulfuric diamide] | 110.8 | 131.4 | 140.4 | significantly decreased mechanical hyperalgesia 2 and 4 hours | 19.8 | 40.4 | 49.4 | – |
| CC(C)(N)Cc1nc2cc(C(F)(F)F)cc(C(F)(F)F)c2[nH]1 [Compound (34), 1-(5,7-bis(trifluoromethyl)-1H-benzo[d]imidazol-2-yl)-2-methylpropan-2-amine] | 104.5 | 144.8 | 132.4 | significantly decreased mechanical hyperalgesia 2 and 4 hours | 15.3 | 54.2 | 42.3 | – |
